Measured values published in patent US11981686B2, “Urea compound having substituent” (DAIICHI SANKYO COMPANY, LIMITED, priority 2019, dated 2024).

What follows are compounds tested against SIRT6 enzyme (Homo sapiens, UniProt Q8N6T7) (assay: Measurement of deacetylation activity (SIRT6, AlphaLISA, H3K9(Ac) peptide)). Conditions: SIRT6 25 ng/mL, H3K9(Ac) biotin peptide 2 nM, NAD 10 μM, room temperature 30 minutes, duplicate.
SIRT6 enzyme, sequence (Q8N6T7 whole entry, species assumed): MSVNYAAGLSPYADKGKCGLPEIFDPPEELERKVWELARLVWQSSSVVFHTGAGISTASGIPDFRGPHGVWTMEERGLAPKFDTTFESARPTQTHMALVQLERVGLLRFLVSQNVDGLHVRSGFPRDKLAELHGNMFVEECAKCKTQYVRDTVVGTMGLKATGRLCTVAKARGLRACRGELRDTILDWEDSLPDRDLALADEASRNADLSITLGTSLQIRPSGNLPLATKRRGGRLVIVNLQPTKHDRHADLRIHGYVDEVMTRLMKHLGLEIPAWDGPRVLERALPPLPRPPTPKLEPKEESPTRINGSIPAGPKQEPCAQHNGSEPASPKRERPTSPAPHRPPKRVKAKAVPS
Format: biochemical
Procedure: The reaction was performed in duplicate using a white 384-well plate (3824, Corning or 6008350, PerkinElmer) at a final reaction liquid volume of 20.1 μL. As a control for calculating the enzyme activity, the enzyme-added (DMSO (+)) and enzyme-free (DMSO (−)) wells were set at n=8. Test substances (examples of final concentrations: 0.046, 0.14, 0.41, 1.2, 3.7, 11, 33, and 100 μM) at a concentration of 100 times or 0.1 μL of DMSO was dispensed into the plate and 5 μL of SIRT6 enzyme (prepared by Daiichi Sankyo RD Novare Co., Ltd., final concentration: 25 ng/mL) diluted with an assay buffer (10 mM Tris-HCl pH of 8.0, 0.1% BSA, 0.01% Tween 20, 1 mM DTT, 12.5% Glycerol) was added thereto. The enzymatic reaction was started by adding 5 μL of a mixed solution [Lys(Ac)9]-Histone H3 (1-21)-NH2, H3K9 (Ac), biotin-labeled, amide (AnaSpec, AS-64190, final concentration: 2 nM) and β-nicotinamide adenine dinucleotide (Sigma-Aldrich, N8285-15VL, final concentration: 10 μM), and the reaction was performed at room temperature for 30 minutes. 10 μL of a mixed solution of nicotinamide (Sigma-Aldrich, 72340-100G, final concentration: 100 mM) prepared with AlphaLISA Epigenetics Buffer (PerkinElmer, AL008C), AlphaLISA Anti-unmodified Histone H3 Lysine 9/Lysine 27 (H3K9/K27) Acceptor Beads (PerkinElmer, AL138, final concentration: 10 μg/mL), and AlphaScreen Streptavidin Donor beads (PerkinElmer, 6760002, final concentration: 5 μg/mL) was added thereto, the reaction was performed at room temperature for 60 minutes and then stopped, and acetylation was detected. The emission intensity was measured by EnVision (PerkinElmer).
The relative enzyme activity (%) of the test substance was calculated by the following equation. Relative enzyme activity (%)=[(emission intensity of test substance-added well−emission intensity of DMSO (−) well)/(emission intensity of DMSO (+) well−emission intensity of DMSO (−) well)]×100
The EC150 (the concentration of the compound showing a relative enzyme activity of 150%) of the test substance was calculated based on Sigmoidal dose-response (variable slope) of GraphPad Prism (GraphPad Software) using the value of the relative enzyme activity (%) at each concentration, and the results are listed in Tables 1-1 to 1-5.
`O=C(Nc1nc2c(s1)[C@@H]1COC[C@H](C2)N1c1cc(-c2ccc(F)cc2)on1)N[C@H]1CC[C@@H](O)CC1` [Example 61, N-{(4S,8S)-10-[5-(4-fluorophenyl)-1,2-oxazol-3-yl]-4,7,8,9-tetrahydro-5H-4,8-epiminooxocino[5,4-d][1,3]thiazol-2-yl}-N′-[(1s,4s)-4-hydroxycyclohexyl]urea] was tested, and the “EC150 (the concentration of the compound showing a relative enzyme activity of 150%)” value was 1.9 μm.
With `O=C(NCC1(O)CCOCC1)Nc1nc2c(s1)[C@@H]1COC[C@H](C2)N1c1nc2cc(Cl)ccc2o1` [Example 150, N-[(4S,8S)-10-(5-chloro-1,3-benzoxazol-2-yl)-4,7,8,9-tetrahydro-5H-4,8-epiminooxocino[5,4-d][1,3]thiazol-2-yl]-N′-[(4-hydroxyoxan-4-yl)methyl]urea] the “EC150 (the concentration of the compound showing a relative enzyme activity of 150%)” value was 0.43 μm.
`CNC(=O)Nc1nc2c(s1)[C@H]1CN(C(C)=O)C[C@@H](C2)N1c1nc(-c2ccc(F)cc2)no1` (relative stereo) [Example 23, (−)-N-{(4R*,8R*)-6-acetyl-10-[3-(4-fluorophenyl)-1,2,4-oxadiazol-5-yl]-4,5,6,7,8,9-hexahydro-4,8-epimino[1,3]thiazolo[5,4-d]azocin-2-yl}-N′-methylurea] was tested, and the “EC150 (the concentration of the compound showing a relative enzyme activity of 150%)” value was 0.19 μm.
For `O=C(NCC1(O)CC1)Nc1nc2c(s1)[C@@H]1COC[C@H](C2)N1c1ncc(-c2cccc(OC(F)F)n2)o1` [Example 179, N-[(4S,8S)-10-{5-[6-(difluoromethoxy)pyridin-2-yl]-1,3-oxazol-2-yl}-4,7,8,9-tetrahydro-5H-4,8-epiminooxocino[5,4-d][1,3]thiazol-2-yl]-N′-[(1-hydroxycyclopropyl)methyl]urea], the “EC150 (the concentration of the compound showing a relative enzyme activity of 150%)” value was 0.72 μm.
`O=C(Nc1nc2c(s1)CN(c1nc(C3CCC(F)(F)CC3)no1)CC2)N[C@H]1CC[C@H](O)CC1` [Example 26, N-{5-[3-(4,4-difluorocyclohexyl)-1,2,4-oxadiazol-5-yl]-4,5,6,7-tetrahydro[1,3]thiazolo[5,4-c]pyridin-2-yl}-N′-[(1r,4r)-4-hydroxycyclohexyl]urea] was tested, and the “EC150 (the concentration of the compound showing a relative enzyme activity of 150%)” value was 0.81 μm.
`CC(C)(O)CNC(=O)Nc1nc2c(s1)CN(c1nc(C3CCCC(F)(F)C3)no1)CC2` (centres unmarked) [Example 28, N-{5-[3-(3,3-difluorocyclohexyl)-1,2,4-oxadiazol-5-yl]-4,5,6,7-tetrahydro[1,3]thiazolo[5,4-c]pyridin-2-yl}-N′-(2-hydroxy-2-methylpropyl)urea] was tested, and the “EC150 (the concentration of the compound showing a relative enzyme activity of 150%)” value was 2.1 μm.
In the case of `Cc1ccc2oc(N3[C@@H]4COC[C@H]3c3sc(NC(=O)NCC(C)(C)O)nc3C4)nc2c1` [Example 145, N-(2-hydroxy-2-methylpropyl)-N′-[(4S,8S)-10-(5-methyl-1,3-benzoxazol-2-yl)-4,7,8,9-tetrahydro-5H-4,8-epiminooxocino[5,4-d][1,3]thiazol-2-yl]urea], the “EC150 (the concentration of the compound showing a relative enzyme activity of 150%)” value is reported as 2.2 μm.
With `O=C(Nc1nc2c(s1)[C@@H]1COC[C@H](C2)N1c1ncc(-c2cccc(OC(F)F)n2)o1)N[C@H]1CC[C@H](O)CC1` [Example 176, N-[(4S,8S)-10-{5-[6-(difluoromethoxy)pyridin-2-yl]-1,3-oxazol-2-yl}-4,7,8,9-tetrahydro-5H-4,8-epiminooxocino[5,4-d][1,3]thiazol-2-yl]-N′-[(1r,4r)-4-hydroxycyclohexyl]urea] the “EC150 (the concentration of the compound showing a relative enzyme activity of 150%)” value was 0.33 μm.
`CNC(=O)Nc1nc2c(s1)[C@H]1CN(C(=O)OC)C[C@@H](C2)N1c1nc(-c2ccc(F)cc2)no1` (relative stereo) [Example 24, (−)-Methyl (4R*,8R*)-10-[3-(4-fluorophenyl)-1,2,4-oxadiazol-5-yl]-2-[(methylcarbamoyl)amino]-4,7,8,9-tetrahydro-4,8-epimino[1,3]thiazolo[5,4-d]azocine-6(5H)-carboxylate] was tested, and the “EC150 (the concentration of the compound showing a relative enzyme activity of 150%)” value was 0.19 μm.
In the case of `CNC(=O)Nc1nc2c(s1)[C@@H]1COC[C@H](C2)N1c1nnc(-c2cccc(C(=O)C3CC3)c2)o1` [Example 21, N-[(4S,8S)-10-{5-[3-(cyclopropanecarbonyl)phenyl]-1,3,4-oxadiazol-2-yl}-4,7,8,9-tetrahydro-5H-4,8-epiminooxocino[5,4-d][1,3]thiazol-2-yl]-N′-methylurea], the “EC150 (the concentration of the compound showing a relative enzyme activity of 150%)” value is reported as 1.5 μm.
With `CCOc1ccc2oc(N3[C@@H]4COC[C@H]3c3sc(NC(=O)NCC(C)(C)O)nc3C4)nc2c1` [Example 40, N-[(4S,8S)-10-(5-ethoxy-1,3-benzoxazol-2-yl)-4,7,8,9-tetrahydro-5H-4,8-epiminooxocino[5,4-d][1,3]thiazol-2-yl]-N′-(2-hydroxy-2-methylpropyl)urea] the “EC150 (the concentration of the compound showing a relative enzyme activity of 150%)” value was 3.1 μm.
For `CS(=O)(=O)N1CC2Cc3nc(NC(=O)NC4CCOCC4)sc3C(C1)N2c1nc(-c2ccc(F)cc2)no1` (centres unmarked) [Example 30, N-{10-[3-(4-fluorophenyl)-1,2,4-oxadiazol-5-yl]-6-(methanesulfonyl)-4,5,6,7,8,9-hexahydro-4,8-epimino[1,3]thiazolo[5,4-d]azocin-2-yl}-N′-oxan-4-ylurea], the “EC150 (the concentration of the compound showing a relative enzyme activity of 150%)” value was 0.18 μm.
In the case of `C[C@H](CO)NC(=O)Nc1nc2c(s1)C1COCC(C2)N1c1nc(-c2cccc(C(F)F)c2)no1` (stereo partly drawn) [Example 124, N-(10-{3-[3-(difluoromethyl)phenyl]-1,2,4-oxadiazol-5-yl}-4,7,8,9-tetrahydro-5H-4,8-epiminooxocino[5,4-d][1,3]thiazol-2-yl)-N′-[(2R)-1-hydroxypropan-2-yl]urea], the “EC150 (the concentration of the compound showing a relative enzyme activity of 150%)” value is reported as 0.39 μm.
`CCOc1cccc(-c2nnc(N3[C@@H]4COC[C@H]3c3sc(NC(=O)NC)nc3C4)o2)c1` [Example 121, N-{(4S,8S)-10-[5-(3-ethoxyphenyl)-1,3,4-oxadiazol-2-yl]-4,7,8,9-tetrahydro-5H-4,8-epiminooxocino[5,4-d][1,3]thiazol-2-yl}-N′-methylurea] was tested, and the “EC150 (the concentration of the compound showing a relative enzyme activity of 150%)” value was 2.1 μm.
In the case of `O=C(NCc1cncnc1)Nc1nc2c(s1)CN(c1nc(C3CCC(F)(F)CC3)no1)CC2` [Example 99, N-{5-[3-(4,4-difluorocyclohexyl)-1,2,4-oxadiazol-5-yl]-4,5,6,7-tetrahydro[1,3]thiazolo[5,4-c]pyridin-2-yl}-N′-[(pyrimidin-5-yl)methyl]urea], the “EC150 (the concentration of the compound showing a relative enzyme activity of 150%)” value is reported as 1.1 μm.
With `CNC(=O)Nc1nc2c(s1)[C@@H]1COC[C@H](C2)N1c1nc(-c2ccc(F)cc2)co1` [Example 17, N-{(4S,8S)-10-[4-(4-fluorophenyl)-1,3-oxazol-2-yl]-4,7,8,9-tetrahydro-5H-4,8-epiminooxocino[5,4-d][1,3]thiazol-2-yl}-N′-methylurea] the “EC150 (the concentration of the compound showing a relative enzyme activity of 150%)” value was 1.8 μm.
For `CC(C)(O)CNC(=O)Nc1nc2c(s1)[C@@H]1COC[C@H](C2)N1c1nc2cc(C(F)F)ccc2o1` [Example 53, N-{(4S,8S)-10-[5-(difluoromethyl)-1,3-benzoxazol-2-yl]-4,7,8,9-tetrahydro-5H-4,8-epiminooxocino[5,4-d][1,3]thiazol-2-yl}-N′-(2-hydroxy-2-methylpropyl)urea], the “EC150 (the concentration of the compound showing a relative enzyme activity of 150%)” value was 0.29 μm.
